Experimental data from patent US8106037B2, “Identification and treatment of estrogen responsive prostate tumors” (The Brigham and Women's Hospital, Inc., priority 2007, dated 2012).
Entries after “also recorded” stand apart in the source; their conditions may differ. Read-outs that look alike come from different tables or passages of the source.

Assays:
[1] = system: TMPRSS2-ERG fusion transcript; assay: TMPRSS2-ERG fusion transcript expression (QPCR) in NCI-H660 cells
Procedure: (§1) Fusion status was determined by ERG break-apart FISH assay (Pemer, et al., Cancer Res. 66:8337-8341 (2006)) and QPCR (for cases not assessable by FISH). An aliquot of the RNA used for DASL was used for QPCR. cDNA was synthesized as above. TMPRSS2-ERG fusion product was determined using SYBR green assay (Qiagen) with TMPRSS2-ERG_f and TMPRSS2-ERG_r primers (Tomlins, et al., Science 310:644-648 (2005)). RPL13A was used for normalization. For estrogen experiments, cDNA was synthesized using the Omniscript RT kit (Qiagen) and HMBS was used for normalization. Relative quantitation was carried out using the comparative Ct method.
(§2) The prostate cancer cell lines NCI-H660 and VCaP were maintained according to ATCC instructions. The cells were hormone-deprived by culture for three days in their respective phenol red-free media (for NCI-H660 without E2 and hydrocortisone) supplemented with 5% CDT-FBS (Invitrogen). Cells were challenged with hormones or vehicle for 12, 24 or 48 hours.
(§3) Reagents were used at a final concentration of 10^−8M.

[2] = system: TMPRSS2-ERG fusion transcript; assay: TMPRSS2-ERG fusion transcript expression in ERβ-overexpressing VCaP cells
Procedure: as §1, §2, §3
VCaP cells were transiently transfected with ERβ containing plasmid using Lipofectamine2000 (Invitrogen) for 6 h. Transfection medium was removed after 6 h, cells were washed in PBS twice, and phenol red-free DMEM (Cellgro) supplemented with 5% CDT-FBS (Invitrogen) was added. Cells were challenged with hormones or vehicle 48 hours after transfection. NCI-H660 cells were transiently transfected with smart pool siRNA against ERβ (Dharmacon).

[3] = system: NCI-H660 prostate cancer cell line; assay: Cell growth assay (Cell Titer-Glo luminescent assay); assay type: cell-based; settings: final concentration 10^−8M, relative cell number 2-12 d
Procedure: The prostate cancer cell lines NCI-[…] and VCaP were maintained according to ATCC instructions. […] NCI-[…] cells were seeded in a 96-well plate ( 5×10^3 cells/well) and stimulated with hormone or vehicle alone. Relative cell number was determined before (time 0 used for normalization) and after stimulation (2, 3, 6, 8, 10, 12 d) using the Cell Titer-Glo luminescent assay (Promega).

[4] = system: TMPRSS2-ERG fusion transcript; assay: TMPRSS2-ERG fusion transcript expression in non-ERβ-overexpressing VCaP cells
Procedure: as §1, §2, §3

[5] = NCI-H660 cells, final concentration 10^−8M, 12, 24 or 48 hours
[6] = ERβ-overexpressing VCaP cells (VCaP-ERβ, ERα negative), final concentration 10^−8M

SMILES	TMPRSS2-ERG expression [1, 5]	TMPRSS2-ERG fusion transcript expression [2, 6]	growth of NCI-H660 cells [3]	TMPRSS2-ERG expression [1]	further results
O=C(c1ccc(OCCN2CCCCC2)cc1)c1c(-c2ccc(O)cc2)sc2cc(O)ccc12 [raloxifene]	up-regulation of TMPRSS2-ERG	remarkable down-regulation of the fusion transcript	–	–	–
C[C@]12CC[C@@H]3c4ccc(O)cc4C[C@@H](CCCCCCCCC[S+]([O-])CCCC(F)(F)C(F)(F)F)[C@H]3[C@@H]1CC[C@@H]2O (stereo partly drawn) [fulvestrant]	reduced the expression of the fusion transcript	–	–	–	–
C[C@]12CC[C@@H]3c4ccc(O)cc4CC[C@H]3[C@@H]1CC[C@@H]2O [E2, 17β-estradiol]	–	down-regulation of the TMPRSS2-ERG fusion transcript	significantly inhibited	–	TMPRSS2-ERG fusion transcript expression ([4]; non-ERβ-overexpressing VCaP cells, final concentration 10^−8M): down-regulation was not seen
CCCc1c(-c2ccc(O)cc2)nn(-c2ccc(O)cc2)c1-c1ccc(O)cc1 [PPT, propylpyrazole triol]	–	–	–	increased TMPRSS2-ERG expression	–
Oc1ccc(/C=C/c2cc(O)cc(O)c2)cc1 [resveretrol]	–	–	–	reduced the expression of the fusion transcript	–
N#CC(Cc1ccc(O)cc1)c1ccc(O)cc1 (stereo not drawn) [DPN, diarylpropionitrile]	suppressed expression of the fusion; also recorded: significantly decreased TMPRSS2-ERG expression	–	suppressed growth	–	TMPRSS2-ERG fusion transcript expression [2]: down-regulation of the TMPRSS2-ERG fusion transcript; TMPRSS2-ERG fusion transcript expression [4]: down-regulation was not seen
